# From patent US5242945A, “Tetronic and thiotetronic acid derivatives as phospholipase A2 inhibitors” (American Home Products Corporation, priority 1991, dated 1993)
# Like-named read-outs stand apart in the source and are kept apart here.
# Legend:
# [1] = test system: lipoxygenase (LTB4 or 5HETE synthesis); test: inhibition of LTB4 and 5-HETE synthesis by rat glycogen-elicited polymorphonuclear leukocytes; format: cell-based, rat (female Wistar); details: Leukocyte, rat PMN; for inhibition at 10 µM: + with * denotes potentiation
# Description: This is especially true with respect to 5,12-diHETE, which is also denoted as LTB4 [see Ford-Hitchinson, J. Roy. Soc. Med., 74, 831 (1981)]. Compounds which inhibit the PLA2 -mediated release of arachidonic acid thereby effectively prevent the oxidation of arachidonic acid to the various leukotriene products via the lipoxygenase cascade. Accordingly, the specificity of action of PLA2 inhibitors can be determined by the activity of test compounds in this assay, which measures the ability of compounds to inhibit the synthesis of LTB4 and 5-HETE by rat glycogen-elicited polymorphonuclear leukocytes (PMN) in the presence of exogenous substrate.
# (§1) Rat polymorphonuclear leukocytes (PMNs) are obtained from female Wistar rats (150-200 g) which receive an injection of 6% glycogen (10 ml i.p.). Rats are sacrificed 18-24 hours post injection by CO2 asphyxiation and the elicited cells are harvested by peritoneal lavage using physiological saline (0.9% NaCl). The exudate is centrifuged at 400 xg for 10 minutes. The supernatant fluid is discarded and the cell pellet is resuspended to a concentration of 2.0×10^7 cells/mL in HBSS containing Ca^++ and Mg^++ and 10 μM L-cysteine.
# (§2) To 1 mL aliquots of cell suspension, test drugs or vehicle are added, then preincubated at 37° C. for 10 minutes. A23187 (1 μM), [^3 H]-AA (3.0 μCi/mL) and unlabeled AA (1 μM) are then added and the samples are further incubated for 10 minutes. The reaction is terminated by centrifugation and pelleting cells. Supernatants are then analyzed by HPLC analysis on a 15 cm×4.6 mm ID supelcosil LC-18 (Supelco)(3M) column, using a two solvent system at a flow rate of 1.4 mL total flow as follows:
# Injections: 140 μL of each supernatant is injected directly onto column and ^3 H arachidonic acid metabolites are monitored using an on-line radioactivity detector (Ramona, IN/US, Fairfield, N.J.).
# Co-chromatography with standard [^3 H] leukotriene B4 (LTB4) in medium of stimulated PMN exposed to drug is compared to that found in medium of stimulated cells exposed to no drug, generating percent inhibition.
# Results are expressed as percent inhibition at a given compound dose or as an IC50 value.
# [2] = test system: cyclooxygenase (PGE2 or TxB2 synthesis); test: inhibition of synthesis of cyclooxygenase products PGE2 and TxB2 by rat polymorphonuclear leukocytes; format: cell-based, rat (female Wistar); details: Leukocyte, rat PMN; for inhibition at 10 µM: + with * denotes potentiation
# Protocol: as §1, §2
# In this assay, the procedure of Example 58 is carried out as described. However, in order to determine cyclooxygenase activity, the samples are co-chromatographed with authentic reference [^3 H]-TxB2 or [^3 H]-PGE2.
# The results are calculated as in Example 58 and presented below: […]
# [3] = test system: purified PLA2, from the diamond back cotton mouth snake (A. piscivorus piscivorus); test: in vivo PLA2 murine paw edema assay; parameters: species or system A. piscivorus piscivorus PLA2 in CD-1 mice
# Protocol: The ability of the compounds of the invention to inhibit paw edema induced by the exogenous administration of PLA2 is measured in the in vivo PLA2 murine paw edema assay.
# Non-fasted, male CD-1 mice (8 weeks old; 31-36 grams) are placed in plastic boxes in groups of six. The right hind paw volume is measured using mercury plethysmography (zero time). Compounds are dosed orally (0.5 mL of 0.5% Tween-80) 1 or 3 hours prior to PLA2 injection or intravenously (0.2 mL in 0.3% dimethylsulfoxide/saline) 3 minutes prior to PLA2 injection. A solution of purified PLA2, from the diamond back cotton mouth snake (A. piscivorus piscivorus) is prepared in saline at a concentration of 6 μg/mL. Fifty (50) μL (0.3 μg) of this PLA2 solution is injected subcutaneously into the right hind paw with a plastic 1 mL plastic syringe (27 gauge, 1" needle). Paw volume of the injected paw is measured again at 10 minutes, 30 minutes and 60 minutes after PLA2 injection. Animals are euthanized with CO2 at the completion of the study.
# The paw edema is calculated by subtracting the zero time volume from the volume recorded at each time period. Mean paw edema for each treatment group is then calculated and expressed as (μL±S.E.). Drug effects are expressed as a percent change from control (vehicle) values. Statistical significance is determined by a one-way analysis of variance with LSD comparison to control (p<0.05). ED50 's are determined using […].
# [4] = test system: carrageenan paw edema; test: rat carrageenan paw edema assay; format: in vivo, rat (Sprague-Dawley)
# Protocol: The compounds of the invention are further tested in the rat carrageenan paw edema assay to determine their ability to inhibit the acute inflammatory response.
# 140-180 g Male Sprague-Dawley rats, in groups of 6 animals are injected subcutaneously in the right paw with 0.1 mL of 1% carrageenan at zero time. Mercury plethysmographic readings (mL) of the paw are made at zero time and 3 hours later. Test compounds are suspended or dissolved in 0.5% methylcellulose and given perorally 1 hour prior to carrageenan administration.
# The increase in paw volume (edema in mL) produced by the carrageenan is measured. Paw edema is calculated (3 hour volume minus zero time volume), and percent inhibition of edema is determined. Unpaired Student's t-test is used to determine statistical significance.
# [5] = test system: purified PLA2, from the diamond back cotton mouth snake (A. piscivorus piscivorus); test: in vivo PLA2 murine paw edema assay; parameters: species or system A. piscivorus piscivorus PLA2 in CD-1 mice; remark: listed apart in the source
smiles,measurement,setting,value
"CCCCCCCCCC(=O)C1=C(O)COC1=O [Example 1, 4-Hydroxy-3-(1-oxodecyl)-2(5H)-furanone]",inhibition at 50 µM,[1]; at 50 μM,60%
same,inhibition at 50 µM,[2]; at 50 μM,71%
same,% Change in Edema 10 min,[3]; 10 mg/kg i.v.,-51%
same,% Change in Edema 30 min,[3]; 10 mg/kg i.v.,-43%
same,% Change in Edema 60 min,[3]; 10 mg/kg i.v.,-23%
same,% Change in Edema 10 min,[3]; 100 mg/kg p.o.,-36%
same,% Change in Edema 30 min,[3]; 100 mg/kg p.o.,-29%
same,% Change in Edema 60 min,[3]; 100 mg/kg p.o.,-29%
same,% Inhibition,[4]; 50 mg/kg peroral,40%
"CCCCCCCC/C=C\CCCCCCCC(=O)C1=C(O)COC1=O [Example 9, (Z)-4-Hydroxy-3-(1-oxo-9-octadecenyl)-2(5H)-furanone]",inhibition at 10 µM,[1]; read-out: % Inhibition LTB4,1%
same,inhibition at 10 µM,[2]; read-out: % Inhibition TxB2,31%
same,% Change in Edema 10 min,[3]; 10 mg/kg i.v.,-48%
same,% Change in Edema 30 min,[3]; 10 mg/kg i.v.,-42%
same,% Change in Edema 60 min,[3]; 10 mg/kg i.v.,-48%
same,% Change in Edema 10 min,[3]; 100 mg/kg p.o.,-1%
same,% Change in Edema 30 min,[3]; 100 mg/kg p.o.,+1.5%
same,% Change in Edema 60 min,[3]; 100 mg/kg p.o.,+7.1%
same,% Inhibition,[4]; 100 mg/kg peroral (dose column),41%
"CCCC/C=C\CCCCCCCC(=O)C1=C(O)COC1=O [Example 25, 4-Hydroxy-3-((Z)-1-oxo-9-tetradecenyl)-2(5H)-furanone]",inhibition at 10 µM,[1]; read-out: % Inhibition 5-HETE,81%
same,inhibition at 10 µM,[1]; read-out: % Inhibition LTB4,8%
same,inhibition at 10 µM,[2]; read-out: % Inhibition PGE2,68%
same,inhibition at 10 µM,[2]; read-out: % Inhibition TxB2,8%
same,% Change in Edema 10 min,[5]; 1 mg/kg i.p.,-50%
same,% Change in Edema 30 min,[5]; 1 mg/kg i.p.,-65%
same,% Change in Edema 60 min,[5]; 1 mg/kg i.p.,-1%
same,% Change in Edema 10 min,[5]; 10 mg/kg i.p.,-38%
same,% Change in Edema 30 min,[5]; 10 mg/kg i.p.,-44%
same,% Change in Edema 60 min,[5]; 10 mg/kg i.p.,-18%
same,% Change in Edema 10 min,[5]; 200 mg/kg p.o.,-40%
same,% Change in Edema 30 min,[5]; 200 mg/kg p.o.,-33%
same,% Change in Edema 60 min,[5]; 200 mg/kg p.o.,-43%
